Results from patent publication US7294755B1 (priority 1997, dated 2007).
Several values for one entry are separate records, joined by “and”; a condition that tells them apart may be missing. Equal values may be shown once.

Tests used:
male germ cells = test: In vivo transduction of male germ cells followed by natural matings, transgenic progeny by PCR and Southern blot; parameters: species or system C57/B1/6J mice; settings: IP 4 μg/gm body wt before in vivo transduction
[1] = tested on: male germ cells of the testis; test: Depopulating the recipient testis of male germ cells, histologic analysis; type: in vivo, C57BL/6J mice; settings: two months after treatment
Procedure: Comparison of Depopulating Treatments. Eight-week-old C57BL/6J mice were allowed to acclimatize for a few days and then were assigned to one of the following three treatment groups. They received: (1) 400 Rad gamma irradiation; (2)4 μg/g body weight of busulfan (1,4-butanediol dimethanesulphonate; Myleran, Glaxo Wellcome); or (3) a combination treatment of busulfan (4 μg/g body wt) followed one week later by 400 Rad of gamma irradiation (“busulfan/400 Rad” treatment). A fourth group of untreated C57BL/6J mice of the same age as the treatment groups was used as a control. There were 24 mice in each treatment group, and 3 mice were sacrificed at each of the following time intervals after treatment: 5 hours, 24 hours, 48 hours, 72 hours, 1 week, 2 weeks, I month and 2 months after treatment. […]
Delivery of an Alkylating Agent to Recipient Vertebrates. The male mice receiving busulfan received a dose of 4 μg busulfan per g body wt. The busulfan was first dissolved 8 mg/mL in 100% dimethyl sulfoxide (DMSO) then, immediately before injection, was diluted 1:1 in phosphate buffered saline, pH 7.4. The mice were injected with the diluted busulfan solution intraperitoneally. Irradiation Treatment of Recipient Vertebrates. For the gamma irradiation treatment, mice were anesthetized with 0.017 mL/g body wt. of 2.5% Avertin. Gamma irradiation was specifically directed to the testis in the following manner. Each mouse was placed in a lead chamber with only the testis and lower abdomen exposed through elliptical holes to the irradiating source (^137Cs Gammacell 40 irradiator [Nordion]). There were six aligned holes in the floor and roof of the chamber through which the gamma radiation passed unobstructed. After irradiation the animals were allowed to recover from the anesthesia on a warm heating pad or water bed until they regained consciousness. Histology. At selected time points, mice from each treatment group were euthanized, and testicular tissues to be examined were fixed in 10% formalin in PBS, pH 7.4, at 4° C. for 24 hours. Small slits in the testis capsule were made to allow penetration of the fixative. Fixed samples were washed four times with PBS, and embedded in paraffin using a Tissue Tek-II tissue processor (MET). Sections of 8 μm thickness were cut, stained with haemotoxylin and eosin (H&E), and mounted with Aquamount (Lerner Laboratories) on glass slides with coverslips. The sections were viewed on a Zeiss or Olympic light microscope with a 40× objective lens (total magnification 400×). Quantitative Histologic Analysis. Quantitative data were collected from the testes of two animals for each of the treatment groups at two months after treatment. (Table 2). For the control group only one mouse was used. The seminiferous tubules in a single section were counted using a 5× objective on a Zeiss light microscope (50× total magnification). Individual seminiferous tubules were examined at 400× total magnification. Seminiferous tubules were considered severely damaged if hardly any cells remained in the tubule, and the tubule consisted of a basement membrane with a single layer of cells, mostly spermatogonia, lying along the basement membrane. Moderately damaged tubules were tubules, in which some of the spermatogenic layers close to the lumen were partially sloughed off. Spermatozoan heads were counted in the tubules and averaged over the total number of tubules counted. Results of Histological Analysis. Obvious histological changes were not seen in the testis until two weeks after treatment. (Data no shown). […] A few Sertoli cell nuclei and spermatogonia were detectable in the periphery along the basement membrane. […] Some spermatids and spermatozoa were seen as well as a few spermatocytes.

testis germ cells = test: Busulfan depopulation of testis before microinjection (Example 15); type: in vivo, mice; settings: IP 4 μg/g body wt.
Procedure: The method of delivery (Winston, R. M. L., Microsurgical reanastomosis of the rabbit oviduct and its functional and pathological sequelae, Brit. J. Obstet. Gynaecol. 82:513-522 ([1975]) of viral particles into a single vas efferens, and thence to the seminiferous tubules, was first optimized in several mice (FIGS. 1a-1d). The mice were treated with busulfan (Myleran: Glaxo Wellcome) 14 days before microsurgery to maximize the chance of viral particles gaining access to spermatogonia, which lie on the basement lamella of the tubules. Busulfan, an alkylating cytotoxic agent, depopulates the testis (Bucci, L. and Meistrich, M., Effects of busulfan on murine spermatogenesis: cytotoxicity, sterility, sperm abnormalities, and dominant lethal mutations, Mut. Res. 176:259-268 [1987]). […] This implies that stem cells remain viable and can repopulate the testis. Stem cell spermatogonia are known to be resistant to insults, often surviving when other germ cell types are destroyed (Huckins, C. & Oakberg, W. F., Morphological and quantitative analysis of spermatogonia in mouse testes using whole mounted seminiferous tubules. II. The irradiated testes, Anat. Rec. 192:529-42 [1978]).

[2] = tested on: male germ cells in the testis; settings: mice, cited from earlier work
[3] = tested on: testicular cells within the seminiferous tubules; test: In vivo transduction of male germ cells using a viral vector (Example 14); parameters: species or system C57BL/6J mice; settings: 4 μg/gm body wt IP, 44 days prior to viral infection
Description: A retroviral vector was used to transduce (genetically alter or modify) male germ cells of mice in vivo. Specifically, a pseudo-typed HIV-derived viral vector (L. Naldini et al., In vivo gene delivery and stable transduction of nondividing cells by a Lentiviral vector, Science 272:263-67 [1996]), was used, as modified by Carlos Lois to express Green Flourescent Protein (GFP) instead of the LacZ reporter gene, under the transcriptional control of the CMV promoter (HR′GFP).
Recipient C57BL/6J mice were treated with busulfan 44 days prior to viral infection. C57BL/6J male mice were injected intraperitoneally with 0.1 ml busulfan at a concentration of 1 mg/ml. The dose was 4 μg busulfan/gm body wt. One pretreated mouse was anesthetized with Avertin (0.017 mls/gm body wt.), and a ventral midline incision was made and the right testis exposed.
The vas efferentia were dissected away from the fat, and ten microlitres of HIV-derived GFP vector, HR′GFP, at a titer of 1×10^9 particles/ml were injected into the seminiferous tubules of the right testis via the vas efferens of a busulfan-treated C57 BL/6J mouse. Injection was done with a quartz glass micropipette attached to a Picospritzer II. The Picospritzer was set at 80 psi and gave 1 second bursts upon manual depression of a foot pedal. […]

Compound: CS(=O)(=O)OCCCCOS(C)(=O)=O [Busulfan, 1,4-butanediol dimethanesulphonate]
- effect of pre-treatment on transduction of spermatogonia (male germ cells): enhanced the transduction of spermatogonia
- Total No. Sperm heads ([1]; in 50 tubules): 957 and 764
- Average No. sperm heads/tubule [1]: 19 and 15
- depopulation of seminiferous tubules, comparison of treatment groups [1]: damage to the spermatogenic process
- Moderately damaged tubules, percent of tubules counted ([1]; one animal per line): 7% and 3%
- No. Moderately damaged (seminiferous tubules) ([1]; one animal per line): 5 and 2
- No. Severely damaged (seminiferous tubules) ([1]; one animal per line): 1 (1%) and 3
- Severely damaged tubules, percent of tubules counted ([1]; one animal per line): 1 (1%) and 10%
- elimination of germ cells from the tubules (testis germ cells): many of the spermatocytes, spermatids and spermatozoa were eliminated from the tubules
- recovery of testis and fertility (testis germ cells): the testis recovered three to four months afterward and fertility was restored
- depletion of male germ cells ([2]; 13 mg-40 mg/kg body wt.): deplete male germs cells in the testis
- duration of azoospermia after treatment ([2]; doses over 30 mg/kg body weight): up to 56 days
- mature spermatozoa in testis [3]: Very few mature spermatozoa were present
